Assay [1] concerns maternal serum samples (antibodies). As to the kind of experiment: ELISA peptide-binding of maternal sera, expanded peptide collection (Example 5). Details: species or system human. The note with it: for Binding / reactivity of maternal sera to peptide (in words): Example 5. An excerpt: The gp120 and gp41 peptides used in this experiment include peptides 60 [SEQ ID NO:9], 93 [SEQ ID NO:10], 94 [SEQ ID NO:1], 95 [SEQ ID NO:11], 96 [SEQ ID NO:12], 97 [SEQ ID NO:13], 59 [SEQ ID NO:14], 106 [SEQ ID NO:15], 107 [SEQ ID NO:[…]], 1029/33 [SEQ ID NO:2], p18p [SEQ ID NO:17], B138 [SEQ ID NO:3], 466 [SEQ ID NO:4], 497 [SEQ ID NO:18], 117 [SEQ ID NO:19], F560 [SEQ ID NO:20], 35 [SEQ ID NO:5], 120 [SEQ ID NO:21], 121 [SEQ ID NO:22], 123 [SEQ ID NO:23], 36 [SEQ ID NO:24], 40 [SEQ ID NO:25], 41 [SEQ ID NO:26], 649 [SEQ ID NO:6], 53 [SEQ ID NO:7], 55 [SEQ ID NO:27], 128 [SEQ ID NO:28], 129 [SEQ ID NO:29], 132 [SEQ ID NO:30], 57 [SEQ ID NO:8], and 1103/55 [SEQ ID NO:31] from Table 2. These peptides were synthesized based on the same HIV IIIB isolate as were the peptides of Table 2. Alternative designations for these peptides are provided in brackets.
Each of the peptides was at least 85% pure, making them suitable for ELISA analyses. The average length of these peptides was 18 amino acid residues, which allows for a certain degree of local flexibility and conformational folding, thus facilitating detection of antibody species with reactivities to shaped structures.
The maternal serum samples were obtained from the Mothers/Infants Cohort Study described in Example 1. For the ELISA peptide-binding analyses performed essentially as described in Example 3, maternal serum samples were diluted to 1:50 or 1:500 with blocking buffer (1% bovine serum albumin in phosphate-buffered saline containing 0.05% Tween 20). Binding was measured using 10 μg/mL peptide per well and was considered positive if the experimental/control OD450nm ratio was ≥2. Normal (HIV seronegative) human sera were used as controls.
A general note: In an ELISA, binding on a coated surface is turned into a signal by an enzyme label.

Assay [2] has as its system maternal HIV+ sera (antibodies). As to the kind of experiment: RIA / ELISA binding of maternal HIV+ sera to gp120 and gp41 peptides (Example 3). Further details: species or system human. The essentials: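 Maternal sera, diluted 1:50 and 1:500, were bound overnight at 4°C to peptides immobilized at 10 μg/ml (pH 9.6 carbonate) and blocked with 1% BSA. Read-out was ¹²⁵I-labelled anti-human IgG counts or HRP-TMB OD450. Signal with peptide minus without was expressed relative to seronegative serum.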

Setting [3] is: Serum No. 1, Non-Transmission Group.
Where [4] appears, read: Serum No. 2, Non-Transmission Group.
Setting [5] is: Serum No. 3, Non-Transmission Group.
[6] abbreviates: Serum No. 4, Transmission Group.
Where [7] appears, read: Serum No. 5, Transmission Group.
[8] abbreviates: Serum No. 6, Non-Transmission Group.
Where [9] appears, read: Serum No. 7, Non-Transmission Group.
The mark [10] stands for this setting: Serum No. 8, Non-Transmission Group.
The mark [11] stands for this setting: Serum No. 9, Non-Transmission Group.
Setting [12] is: Serum No. 10, Transmission Group.
Setting [13] is: Serum No. 11, Non-Transmission Group.
Setting [14] is: Serum No. 12, Non-Transmission Group.
The mark [15] stands for this setting: Serum No. 13, Transmission Group.
Setting [16] is: Serum No. 14, Transmission Group.
[17] abbreviates: Serum No. 15, Transmission Group.
[18] abbreviates: Serum No. 16, Non-Transmission Group.
The mark [19] stands for this setting: Serum No. 17, Non-Transmission Group.
Where [20] appears, read: Serum No. 18, Non-Transmission Group.
[21] abbreviates: Serum No. 19, Transmission Group.
Setting [22] is: Serum No. 20, Non-Transmission Group.

Entries after “also recorded” stand apart in the source; their conditions may differ.

As for LAVERYLKDQQLLGI [Peptide 121], in assay [1], the “Binding / reactivity of maternal sera to peptide (in words)” value (“Binding / reactivity of maternal sera” below) is recorded as “recognized by the transmission group”. For the same sequence, the “Binding of maternal HIV+ serum to peptide (sera/NHS ratio)” value (“Binding … (sera/NHS ratio)” for short) was “++ (which value is greater than 3)” in assay [2] (setting [3]); “- (specific OD450 or cpm of sera sample binding to peptide divided by the specific OD450 or cpm of NHS sample binding to peptide, which value is less than 2)” in assay [2] (setting [4]); “- (specific OD450 or cpm of sera sample binding to peptide divided by the specific OD450 or cpm of NHS sample binding to peptide, which value is less than 2)” in assay [2] (setting [5]); “- (specific OD450 or cpm of sera sample binding to peptide divided by the specific OD450 or cpm of NHS sample binding to peptide, which value is less than 2)” in assay [2] (setting [6]); “- (specific OD450 or cpm of sera sample binding to peptide divided by the specific OD450 or cpm of NHS sample binding to peptide, which value is less than 2)” in assay [2] (setting [7]); “++ (which value is greater than 3)” in assay [2] (setting [8]). Also, the “Binding … (sera/NHS ratio)” value in assay [2] (setting [9]) was “- (specific OD450 or cpm of sera sample binding to peptide divided by the specific OD450 or cpm of NHS sample binding to peptide, which value is less than 2)”; in assay [2] (setting [10]) it was “- (specific OD450 or cpm of sera sample binding to peptide divided by the specific OD450 or cpm of NHS sample binding to peptide, which value is less than 2)”; in assay [2] (setting [11]) it was “- (specific OD450 or cpm of sera sample binding to peptide divided by the specific OD450 or cpm of NHS sample binding to peptide, which value is less than 2)”; in assay [2] (setting [12]), “- (specific OD450 or cpm of sera sample binding to peptide divided by the specific OD450 or cpm of NHS sample binding to peptide, which value is less than 2)”; in assay [2] (setting [13]) it was “- (specific OD450 or cpm of sera sample binding to peptide divided by the specific OD450 or cpm of NHS sample binding to peptide, which value is less than 2)”; in assay [2] (setting [14]), “- (specific OD450 or cpm of sera sample binding to peptide divided by the specific OD450 or cpm of NHS sample binding to peptide, which value is less than 2)”. For the same sequence, the “Binding … (sera/NHS ratio)” value was “- (specific OD450 or cpm of sera sample binding to peptide divided by the specific OD450 or cpm of NHS sample binding to peptide, which value is less than 2)” in assay [2] (setting [15]); “++ (which value is greater than 3)” in assay [2] (setting [16]); “++ (which value is greater than 3)” in assay [2] (setting [17]); “++ (which value is greater than 3)” in assay [2] (setting [18]); “++ (which value is greater than 3)” in assay [2] (setting [19]); “++ (which value is greater than 3)” in assay [2] (setting [20]). Further, the “Binding … (sera/NHS ratio)” value in assay [2] (setting [21]) is on record as “- (specific OD450 or cpm of sera sample binding to peptide divided by the specific OD450 or cpm of NHS sample binding to peptide, which value is less than 2)”; in assay [2] (setting [22]) it was “- (specific OD450 or cpm of sera sample binding to peptide divided by the specific OD450 or cpm of NHS sample binding to peptide, which value is less than 2)”. Also, the “Percent of the maternal serum samples that bound to the peptide” value in assay [2] (all 20 samples) was 35%.

For LGIWGCSGKLIC [Peptide 41-2], the “Binding / reactivity of maternal sera” value in assay [1] is “Virtually all samples reacted; also recorded: recognized by the transmission group”. For the same sequence, in assay [1] (transmission and non-transmission groups), the “Percent of both groups that bound to the peptide” value is recorded as 90%.

THACVPTDPNPQEVV [Peptide 95]: in assay [1], the “Binding / reactivity of maternal sera” value was “Differences in binding between the transmission and non-transmission groups are noted”. In addition, the “Number of maternal sera binding to peptide” value in assay [2] (20 maternal sera) is “three”. Further, the “Binding of maternal sera to peptide (in words)” value in assay [2] (Example 3) was “Several maternal serum samples had reactivity”. The “Binding … (sera/NHS ratio)” value in assay [2] (setting [3]) is “+ (which value is between 2 to 3)”; in assay [2] (setting [4]), “- (specific OD450 or cpm of sera sample binding to peptide divided by the specific OD450 or cpm of NHS sample binding to peptide, which value is less than 2)”; in assay [2] (setting [5]), “- (specific OD450 or cpm of sera sample binding to peptide divided by the specific OD450 or cpm of NHS sample binding to peptide, which value is less than 2)”; in assay [2] (setting [6]) it was “- (specific OD450 or cpm of sera sample binding to peptide divided by the specific OD450 or cpm of NHS sample binding to peptide, which value is less than 2)”; in assay [2] (setting [7]), “- (specific OD450 or cpm of sera sample binding to peptide divided by the specific OD450 or cpm of NHS sample binding to peptide, which value is less than 2)”; in assay [2] (setting [8]), “- (specific OD450 or cpm of sera sample binding to peptide divided by the specific OD450 or cpm of NHS sample binding to peptide, which value is less than 2)”. Also, the “Binding … (sera/NHS ratio)” value in assay [2] (setting [9]) is recorded as “- (specific OD450 or cpm of sera sample binding to peptide divided by the specific OD450 or cpm of NHS sample binding to peptide, which value is less than 2)”; in assay [2] (setting [10]) it was “- (specific OD450 or cpm of sera sample binding to peptide divided by the specific OD450 or cpm of NHS sample binding to peptide, which value is less than 2)”; in assay [2] (setting [11]), “- (specific OD450 or cpm of sera sample binding to peptide divided by the specific OD450 or cpm of NHS sample binding to peptide, which value is less than 2)”; in assay [2] (setting [12]), “- (specific OD450 or cpm of sera sample binding to peptide divided by the specific OD450 or cpm of NHS sample binding to peptide, which value is less than 2)”; in assay [2] (setting [13]), “+ (which value is between 2 to 3)”; in assay [2] (setting [14]), “- (specific OD450 or cpm of sera sample binding to peptide divided by the specific OD450 or cpm of NHS sample binding to peptide, which value is less than 2)”. For the same sequence, the “Binding … (sera/NHS ratio)” value is given as “- (specific OD450 or cpm of sera sample binding to peptide divided by the specific OD450 or cpm of NHS sample binding to peptide, which value is less than 2)” in assay [2] (setting [15]); “++ (which value is greater than 3)” in assay [2] (setting [16]); “- (specific OD450 or cpm of sera sample binding to peptide divided by the specific OD450 or cpm of NHS sample binding to peptide, which value is less than 2)” in assay [2] (setting [17]); “- (specific OD450 or cpm of sera sample binding to peptide divided by the specific OD450 or cpm of NHS sample binding to peptide, which value is less than 2)” in assay [2] (setting [18]); “- (specific OD450 or cpm of sera sample binding to peptide divided by the specific OD450 or cpm of NHS sample binding to peptide, which value is less than 2)” in assay [2] (setting [19]); “- (specific OD450 or cpm of sera sample binding to peptide divided by the specific OD450 or cpm of NHS sample binding to peptide, which value is less than 2)” in assay [2] (setting [20]). Also, the “Binding … (sera/NHS ratio)” value in assay [2] (setting [21]) is given as “- (specific OD450 or cpm of sera sample binding to peptide divided by the specific OD450 or cpm of NHS sample binding to peptide, which value is less than 2)”; in assay [2] (setting [22]), “- (specific OD450 or cpm of sera sample binding to peptide divided by the specific OD450 or cpm of NHS sample binding to peptide, which value is less than 2)”. Further, the “Number of binding maternal sera from the transmission group” value in assay [2] (vertical transmission group (7 sera)) is “one”.

(Values after US5556744A, “Methods and compositions for diagnosing and treating certain HIV infected patients” (The Trustees of the University of Pennsylvania, priority 1994, dated 1996).)
